From patent publication US11583502B2, “Pharmaceutical compositions comprising a thyroid hormone beta agonist, method of use and method making thereof” (GANNEX PHARMA CO., LTD., priority 2020, dated 2023)

Tests used:
[1] = Solubility of the compound of Formula (I) in media without surfactant; assay type: physicochemical
Description: The compound of Formula (I), however, is a lipophilic drug that is highly insoluble in water. […] The very low solubility limits its use in research and development as a drug candidate.
For drugs with poor solubility, in vitro dissolution evaluation is a simple and effective method for predicting and comparing dissolution in vivo. In vitro dissolution evaluation is also an important criterion for screening prescription drugs for quality control. […] Therefore, in order to completely dissolve the compound in a conventional 900 ml medium for a 10 mg/unit dose formulation, it is necessary to increase the solubility of the compound to at least 11.11 μg/ml. It would be difficult to achieve such a target with conventional solubilization technology.

[2] = assay type: physicochemical; conditions: 3.5 hours

solubility ([1]; aqueous buffer, hydrochloric acid solution, buffer, and water without surfactant at 37° C. and pH 1.0˜9.0): < 0.5 ng/mL
solubility ([1]; medium containing no surfactant): < 0.5 ng/mL
drug undergoing degradation reactions [2]: 10.2%
Structure (SMILES): Cc1cc(OC[P@@]2(=O)OCC[C@@H](c3cccc(Cl)c3)O2)cc(C)c1Cc1ccc(O)c(C(C)C)c1 [compound of Formula (I)]
